logP data for 32 compounds are collected here from the OPERA property sets (Mansouri et al. 2018).

In turn, `COc1cnc(-c2ccccc2)c(-c2ccccc2)n1` returned a logP of 4.21.

In the case of `c1ccc(-c2cnccn2)cc1`, the logP is 2.07. In turn, `Cc1cnc(-c2ccccc2)c(-c2ccccc2)n1` came in with a logP of 3.52. To `COc1ccccc1Cc1cnc(-c2ccccc2)c(-c2ccccc2)n1` belongs 5.18; to `Cc1nc(Cl)c(C)nc1Cl`, 2.4; to `Cc1nc(-c2ccccc2)cnc1-c1ccccc1`, 4.28. Then `Cc1c[n+]([O-])c(C)c(Cl)n1`, with 0.44.

The compound `Clc1cnc(-c2ccccc2)c(-c2ccccc2)n1` gave a logP of 4.05. As to `CCc1cnc(-c2ccc(OC)cc2)c(-c2ccc(OC)cc2)n1`, the logP turned out to be 4.22. Then `Cc1ncc(C)[n+]([O-])c1Cl`, with 0.19; and `CCOc1cnc(-c2ccccc2)c(-c2ccccc2)n1`, with 4.73; and `Cc1ncc(-c2ccccc2)nc1-c1ccccc1`, with 4.29. The compound `COc1ccc(-c2ncc(C)nc2-c2ccc(OC)cc2)cc1` showed a logP of 3.66.

In turn, `COc1ccc(-c2nc(C)c(C)nc2-c2ccc(OC)cc2)cc1` registered a logP of 4.1. To `COc1ccc(-c2ncc(Cl)nc2-c2ccc(OC)cc2)cc1` belongs 4.3. Then `COc1cccc(Cc2cnc(-c3ccccc3)c(-c3ccccc3)n2)c1`, with 5.2; and `COc1ccc(-c2ncc(C#N)nc2-c2ccc(OC)cc2)cc1`, with 3.7.

In the case of `CC(C)c1cnc(-c2ccccc2)c(-c2ccccc2)n1`, the logP was 4.71.

With `[O-][n+]1cc(Cl)nc(-c2ccc(Cl)cc2)c1-c1ccc(Cl)cc1`, the logP is 3.66. Then `Cc1cnc(-c2ccc(C#N)cc2)c(-c2ccc(C#N)cc2)n1`, with 2.52.

Compound `COc1ccc(-c2cnccn2)cc1` registered a logP of 2.24.

Compound `CCOc1cnc(-c2ccc(OC)cc2)c(-c2ccc(OC)cc2)n1` showed a logP of 5. Then `c1ccc(-c2nccnc2-c2ccccc2)cc1`, with 3.19; and `COc1ccc(-c2nccnc2-c2ccc(OC)cc2)cc1`, with 3.42; and `[O-][n+]1ccnc(-c2ccc(Br)cc2)c1-c1ccc(Br)cc1`, with 3.41. `Cc1cnc(-c2ccc(F)cc2)c(-c2ccc(F)cc2)n1` displayed a logP of 3.75.

On to `Cc1nc(Cl)c(C)[n+]([O-])c1Cl`, for which the logP turned out to be 1.08.

As for `Cc1ccc(-c2nccnc2-c2ccc(C)cc2)cc1`, the logP was determined as 4.1. Then `COc1ccc(-c2ncc(OC)nc2-c2ccc(OC)cc2)cc1`, with 4.47; and `COC(=O)c1cnc(-c2ccc(OC)cc2)c(-c2ccc(OC)cc2)n1`, with 3.41. Then `CCc1ncc(-c2ccccc2)nc1-c1ccccc1`, with 4.66; and `CCc1nc(CC)c(-c2ccccc2)nc1-c1ccccc1`, with 4.83.
